As a reminder, the EC50 is the concentration at which the effect is half-maximal.

A value given as a limit tells only on which side of the number the result lay.

The target in one assay is T1, GFRα1-RET (Homo sapiens, UniProt P56159).
T1 construct: expressed in transfected cells; host or cells: MG87 murine fibroblast
T1 sequence (P56159 25-429 limits assumed): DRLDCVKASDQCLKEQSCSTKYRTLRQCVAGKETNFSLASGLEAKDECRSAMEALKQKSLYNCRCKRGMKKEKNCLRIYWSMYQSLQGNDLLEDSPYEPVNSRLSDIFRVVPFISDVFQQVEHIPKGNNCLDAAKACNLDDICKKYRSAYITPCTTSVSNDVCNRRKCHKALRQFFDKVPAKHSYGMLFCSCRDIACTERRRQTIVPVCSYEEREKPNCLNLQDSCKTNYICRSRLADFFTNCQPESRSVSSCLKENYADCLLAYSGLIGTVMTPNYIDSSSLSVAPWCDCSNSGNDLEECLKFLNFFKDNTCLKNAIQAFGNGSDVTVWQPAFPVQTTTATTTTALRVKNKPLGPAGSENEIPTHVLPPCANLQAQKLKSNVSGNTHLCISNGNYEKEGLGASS
T1 sequence (P07949 29-1114 partner): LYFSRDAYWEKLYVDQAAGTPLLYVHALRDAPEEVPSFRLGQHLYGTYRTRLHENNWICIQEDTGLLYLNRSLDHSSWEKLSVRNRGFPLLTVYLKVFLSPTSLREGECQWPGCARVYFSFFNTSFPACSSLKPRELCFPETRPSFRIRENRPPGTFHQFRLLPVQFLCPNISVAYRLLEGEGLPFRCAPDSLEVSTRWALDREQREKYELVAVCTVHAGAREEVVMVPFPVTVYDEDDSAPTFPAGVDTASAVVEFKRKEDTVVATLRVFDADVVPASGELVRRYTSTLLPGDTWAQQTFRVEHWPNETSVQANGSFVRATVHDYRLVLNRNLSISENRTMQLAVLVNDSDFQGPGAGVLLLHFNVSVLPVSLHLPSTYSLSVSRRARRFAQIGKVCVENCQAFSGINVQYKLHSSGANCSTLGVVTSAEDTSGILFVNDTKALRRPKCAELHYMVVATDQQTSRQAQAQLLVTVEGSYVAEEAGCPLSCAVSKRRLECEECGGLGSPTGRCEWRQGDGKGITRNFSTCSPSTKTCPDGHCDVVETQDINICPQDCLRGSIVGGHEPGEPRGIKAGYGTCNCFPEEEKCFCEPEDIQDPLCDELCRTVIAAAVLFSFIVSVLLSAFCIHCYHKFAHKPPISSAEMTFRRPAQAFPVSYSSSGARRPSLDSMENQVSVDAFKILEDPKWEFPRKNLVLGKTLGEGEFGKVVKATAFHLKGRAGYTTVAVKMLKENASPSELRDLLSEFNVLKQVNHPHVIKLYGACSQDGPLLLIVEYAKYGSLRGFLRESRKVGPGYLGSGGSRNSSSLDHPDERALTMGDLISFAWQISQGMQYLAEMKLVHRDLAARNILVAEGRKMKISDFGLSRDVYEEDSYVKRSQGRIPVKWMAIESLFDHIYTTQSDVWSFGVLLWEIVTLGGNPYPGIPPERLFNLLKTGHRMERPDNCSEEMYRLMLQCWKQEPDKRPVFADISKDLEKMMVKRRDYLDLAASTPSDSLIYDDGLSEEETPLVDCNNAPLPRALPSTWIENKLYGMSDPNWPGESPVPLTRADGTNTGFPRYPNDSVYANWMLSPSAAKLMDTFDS
In words: Luciferase assay: activation of Elk1 signaling in reporter-gene cells expressing GFRα1-RET (MG87 murine fibroblast stably transfected with PathDetect Elk-1, GFRα1, and RET). Particulars: Table 4; MG87 murine fibroblasts with PathDetect Elk-1, GFRα1, RET; 6 concentrations, duplicate, two times independently; agonist/activator activity; read-out: Luciferase Assay EC50. It counts as cell-based. As for the experimental part:
The purpose of this experiment was to evaluate the GFRα1-RET activity of the compounds 001-060 according to the invention.
The compounds were tested for their activating activity of Elk1 signaling using the previously developed reporter-gene-based system in cells expressing GFRα1-RET (MG87 murine fibroblast stably transfected with PathDetect Elk-1, GFRα1, and RET) disclosed in Sidorova, Y. A. et al.: “Persephin signaling through GFRα1: The potential for the treatment of Parkinson's disease.” Molecular and Cellular Neuroscience, July 2010, Vol. 44, pp. 223-232. DOI: 10.1016/j.mcn.2010.03.009. For EC50 determination, a dose-response test was performed using 6 concentrations of each tested compound. Dose-response curves were fitted using the sigmoidal dose-response (variable slope) analysis in GraphPad Prism program (Graph Pad Inc) and EC50 of agonist/activator activity was calculated. Dose-response experiments were all performed in duplicate, two times independently.
The compounds were tested for their activating activity of Elk1 signaling using the same materials and methods than for the compounds according to the invention (Example 2 herein, section “Materials and methods”).
`COc1ccc(S(=O)(=O)N2CCN(CC(C)c3ccccc3)CC2)cc1N1CCN(C(=O)c2ccc(F)cc2Cl)CC1` (racemic) [Compound 053, (2-chloro-4-fluoro-phenyl)-[4-[2-methoxy-5-[4-[rac-(2R)-2-phenylpropyl]piperazin-1-yl]sulfonyl-phenyl]piperazin-1-yl]methanone]: the EC50 was 1 to 5 µM.

For `CCCN(C)S(=O)(=O)c1ccc(O)c(N2CCN(C(=O)c3ccc(F)cc3C(F)(F)F)CC2)c1` [Compound 048, 3-[4-[4-fluoro-2-(trifluoromethyl)benzoyl]piperazin-1-yl]-4-hydroxy-N-methyl-N-propyl-benzenesulfonamide], the EC50 lay in the range of 5 to 10 µM.

Regarding `COc1ccc(S(=O)(=O)N2CCN(CCc3ccc(F)cc3)CC2)cc1N1CCN(C(=O)c2ccc(F)cc2Cl)CC1` [Compound 052, (2-chloro-4-fluoro-phenyl)-[4-[5-[4-[2-(4-fluorophenyl)ethyl]piperazin-1-yl]sulfonyl-2-methoxy-phenyl]piperazin-1-yl]methanone], the EC50 is 1 to 5 µM.

For `Cc1cc(S(=O)(=O)N2CCC(c3ccccc3)CC2)cc(N2CCN(C(=O)c3ccc(F)cc3Cl)CC2)c1O` [Compound 055, (2-chloro-4-fluoro-phenyl)-[4-[2-hydroxy-3-methyl-5-[(4-phenyl-1-piperidyl)sulfonyl]phenyl]piperazin-1-yl]methanone], the EC50 is less than 1 µM.

As to `CCCN(C)S(=O)(=O)c1ccc(OCCOC)c(N2CCN(C(=O)c3ccc(F)cc3C(F)(F)F)CC2)c1` [Compound 046, 3-[4-[4-fluoro-2-(trifluoromethyl)benzoyl]piperazin-1-yl]-4-(2-methoxyethoxy)-N-methyl-N-propyl-benzenesulfonamide], the EC50 is 5 to 10 µM.

In the case of `COc1ccc(S(=O)(=O)N2CCC(Cc3ccccc3)CC2)cc1N1CCN(C(=O)c2ccccc2C(F)F)CC1` [Compound 007, [4-[5-[(4-benzyl-1-piperidyl)sulfonyl]-2-methoxy-phenyl]piperazin-1-yl]-[2-(difluoromethyl)phenyl]methanone], the EC50 is 1 to 5 µM.

In the case of `COc1ccc(S(=O)(=O)N2CCC(c3ccccc3)CC2)cc1N1CCN(C(=O)c2ccc(F)cc2Cl)CC1` [Compound 025, (2-chloro-4-fluoro-phenyl)-[4-[2-methoxy-5-[(4-phenyl-1-piperidyl)sulfonyl]phenyl]piperazin-1-yl]methanone], the concentration giving a half-maximal response (EC50) was less than 1 µM.

As for `CCCN(C)S(=O)(=O)c1ccc(OC)c(N2CCN(C(=O)c3ccc(F)cc3C(F)F)CC2)c1` [Compound 006, 3-[4-[2-(difluoromethyl)-4-fluoro-benzoyl]piperazin-1-yl]-4-methoxy-N-methyl-N-propyl-benzenesulfonamide], the concentration for a half-maximal effect (EC50) was 1 to 5 µM.

For the compound `COc1ccc(S(=O)(=O)N2CC3CN(C(=O)OC(C)(C)C)CC3C2)cc1N1CCN(C(=O)c2ccc(F)cc2Cl)CC1` (stereo not shown) [Compound 022, tert-butyl 5-[3-[4-(2-chloro-4-fluoro-benzoyl)piperazin-1-yl]-4-methoxy-phenyl]sulfonyl-1,3,3a,4,6,6a-hexahydropyrrolo[3,4-c]pyrrole-2-carboxylate], the EC50 is 10 to 50 µM.

Take `COc1ccc(S(=O)(=O)N2CCCC(c3ccccc3)C2)cc1N1CCN(C(=O)c2ccc(F)cc2Cl)CC1` (stereo not shown) [Compound 026, (2-chloro-4-fluoro-phenyl)-[4-[2-methoxy-5-[[3-phenyl-1-piperidyl]sulfonyl]phenyl]piperazin-1-yl]methanone]: the EC50 fell in the range of 1 to 5 µM.

In the case of `COc1ccc(S(=O)(=O)N(C)C2(C)COC2)cc1N1CCN(C(=O)c2ccc(F)cc2Cl)CC1` [Compound 018, 3-[4-(2-chloro-4-fluoro-benzoyl)piperazin-1-yl]-4-methoxy-N-methyl-N-(3-methyloxetan-3-yl)benzenesulfonamide], the EC50 lay within 10 to 50 µM.

In the case of `COc1ccc(S(=O)(=O)N(C)Cc2ccc(F)cc2)cc1N1CCN(C(=O)c2ccc(F)cc2Cl)CC1` [Compound 021, 3-[4-(2-chloro-4-fluoro-benzoyl)piperazin-1-yl]-N-[(4-fluorophenyl)methyl]-4-methoxy-N-methyl-benzenesulfonamide], the EC50 lay within 5 to 10 µM.

For the compound `COc1ccc(S(=O)(=O)NC2C3CC4CC(C3)CC2C4)cc1N1CCN(C(=O)c2ccc(F)cc2Cl)CC1` (stereo not shown) [Compound 034, N-(2-adamantyl)-3-[4-(2-chloro-4-fluoro-benzoyl)piperazin-1-yl]-4-methoxy-benzenesulfonamide], the EC50 was 5 to 10 µM.

As to `COc1ccc(S(=O)(=O)N2CCC(Cc3ccccc3)CC2)cc1N1CCN(C(=O)c2ccc(F)cc2C(F)F)CC1` [Compound 010, [4-[5-[(4-benzyl-1-piperidyl)sulfonyl]-2-methoxy-phenyl]piperazin-1-yl]-[2-(difluoromethyl)-4-fluoro-phenyl]methanone], the EC50 fell in the range of 1 to 5 µM.

Turning to `COc1ccc(S(=O)(=O)N2CCCC(OCc3ccccc3)C2)cc1N1CCN(C(=O)c2ccc(F)cc2Cl)CC1` (stereo not shown) [Compound 038, (2-chloro-4-fluoro-phenyl)-[4-[2-methoxy-5-[[3-benzyloxy-1-piperidyl]sulfonyl]phenyl]piperazin-1-yl]methanone], the EC50 is 1 to 5 µM.

On to `COc1ccc(S(=O)(=O)N(C)C2CCCCC2)cc1N1CCN(C(=O)c2ccc(F)cc2Cl)CC1` [Compound 017, 3-[4-(2-chloro-4-fluoro-benzoyl)piperazin-1-yl]-N-cyclohexyl-4-methoxy-N-methyl-benzenesulfonamide], for which the EC50 lay within 1 to 5 µM.

As to `COc1ccc(S(=O)(=O)N2CCC(O)(c3ccccc3)CC2)cc1N1CCN(C(=O)c2ccc(F)cc2Cl)CC1` [Compound 011, (2-chloro-4-fluoro-phenyl)-[4-[5-[(4-hydroxy-4-phenyl-1-piperidyl)sulfonyl]-2-methoxy-phenyl]piperazin-1-yl]methanone], the concentration giving a half-maximal response (EC50) fell in the range of 5 to 10 µM.

Regarding `COc1ccc(S(=O)(=O)N2CCN(Cc3ccccc3)CC2)cc1N1CCN(C(=O)c2ccc(F)cc2Cl)CC1` [Compound 013, [4-[5-(4-benzylpiperazin-1-yl)sulfonyl-2-methoxy-phenyl]piperazin-1-yl]-(2-chloro-4-fluoro-phenyl)methanone], the EC50 lay within 5 to 10 µM.

For `COc1ccc(S(=O)(=O)NC(C)(C)C)cc1N1CCN(C(=O)c2ccc(F)cc2Cl)CC1` [Compound 032, N-tert-butyl-3-[4-(2-chloro-4-fluoro-benzoyl)piperazin-1-yl]-4-methoxy-benzenesulfonamide], the EC50 lay in the range of 1 to 5 µM.

Turning to `CCN(CC)S(=O)(=O)c1cnc(Cl)c(N2CCN(C(=O)c3ccc(F)cc3C(F)(F)F)CC2)c1` [Compound 044, 6-chloro-N,N-diethyl-5-[4-[4-fluoro-2-(trifluoromethyl)benzoyl]piperazin-1-yl]pyridine-3-sulfonamide], the EC50 was in the range of 10 to 50 µM.

Regarding `COc1ccc(S(=O)(=O)N(C)Cc2ccccc2)cc1N1CCN(C(=O)c2ccc(F)cc2Cl)CC1` [Compound 019, N-benzyl-3-[4-(2-chloro-4-fluoro-benzoyl)piperazin-1-yl]-4-methoxy-N-methyl-benzenesulfonamide], the EC50 was in the range of 10 to 50 µM.

Consider `COc1ccc(S(=O)(=O)N2CCC(CCc3ccccc3)CC2)cc1N1CCN(C(=O)c2ccc(F)cc2Cl)CC1` [Compound 024, (2-chloro-4-fluoro-phenyl)-[4-[2-methoxy-5-[[4-(2-phenylethyl)-1-piperidyl]sulfonyl]phenyl]piperazin-1-yl]methanone], for which the EC50 was less than 1 µM.

In the case of `COc1ccc(S(=O)(=O)N(C)C(C)(C)C)cc1N1CCN(C(=O)c2ccc(F)cc2Cl)CC1` [Compound 033, N-tert-butyl-3-[4-(2-chloro-4-fluoro-benzoyl)piperazin-1-yl]-4-methoxy-N-methyl-benzenesulfonamide], the EC50 lay in the range of 5 to 10 µM.

Take `COc1ccc(S(=O)(=O)N2CCCC2(C)C)cc1N1CCN(C(=O)c2ccc(F)cc2Cl)CC1` [Compound 060, (2-chloro-4-fluoro-phenyl)-[4-[5-(2,2-dimethylpyrrolidin-1-yl)sulfonyl-2-methoxy-phenyl]piperazin-1-yl]methanone]: the EC50 lay in the range of 1 to 5 µM.

In the case of `CN(CC1CC1)S(=O)(=O)c1cc(Cl)c(O)c(N2CCN(C(=O)c3ccc(F)cc3Cl)CC2)c1` [Compound 059, 3-chloro-5-[4-(2-chloro-4-fluoro-benzoyl)piperazin-1-yl]-N-(cyclopropylmethyl)-4-hydroxy-N-methyl-benzenesulfonamide], the half-maximal effective concentration (EC50) was less than 1 µM.

Staying with this assay, now noted: Table 6, comparison with comparative compounds; values for 001, 009, 010 reported from Table 4; MG87 GFRα1-RET cells; read-out: Luciferase Assay EC50.
As to `COc1ccc(S(=O)(=O)N2CCC(Cc3ccccc3)CC2)cc1N1CCN(C(=O)c2cc(F)ccc2C(F)(F)F)CC1` [Compound C01, (4-(5-((4-benzylpiperidin-1-yl)sulfonyl)-2-methoxyphenyl)piperazin-1-yl)(5-fluoro-2-(trifluoromethyl)phenyl)methanone, reference compound], the EC50 is more than 50 µM.

Take `COc1ccc(S(=O)(=O)N2CCC(Cc3ccccc3)CC2)cc1N1CCN(C(=O)c2ccc(F)cc2C(F)F)CC1` [Compound 010, [4-[5-[(4-benzyl-1-piperidyl)sulfonyl]-2-methoxy-phenyl]piperazin-1-yl]-[2-(difluoromethyl)-4-fluoro-phenyl]methanone]: the EC50 lay within 1 to 5 µM.

For the compound `CCN(CC)S(=O)(=O)c1ccc(OC)c(N2CCN(C(=O)c3cc(F)ccc3C(F)(F)F)CC2)c1` [Compound C02, N,N-diethyl-3-(4-(5-fluoro-2-(trifluoromethyl)benzoyl)piperazin-1-yl)-4-methoxybenzenesulfonamide, reference compound], the 50% effective concentration (EC50) was more than 50 µM.

Staying with this assay, now noted: text statement on Table 6 results, GFRα1-RET luciferase assay; read-out: EC50.
As to `COc1ccc(S(=O)(=O)N2CCC(Cc3ccccc3)CC2)cc1N1CCN(C(=O)c2cc(F)ccc2C(F)(F)F)CC1` [Compound C01, (4-(5-((4-benzylpiperidin-1-yl)sulfonyl)-2-methoxyphenyl)piperazin-1-yl)(5-fluoro-2-(trifluoromethyl)phenyl)methanone, reference compound], the EC50 is more than 50 µM.

In the case of `COc1ccc(S(=O)(=O)N2CCC(Cc3ccccc3)CC2)cc1N1CCN(C(=O)c2ccc(F)cc2C(F)F)CC1` [Compound 010, [4-[5-[(4-benzyl-1-piperidyl)sulfonyl]-2-methoxy-phenyl]piperazin-1-yl]-[2-(difluoromethyl)-4-fluoro-phenyl]methanone], the EC50 is less than 10 µM.

As for `CCN(CC)S(=O)(=O)c1ccc(OC)c(N2CCN(C(=O)c3cc(F)ccc3C(F)(F)F)CC2)c1` [Compound C02, N,N-diethyl-3-(4-(5-fluoro-2-(trifluoromethyl)benzoyl)piperazin-1-yl)-4-methoxybenzenesulfonamide, reference compound], the EC50 is more than 50 µM.

The record behind these values is patent US20260356810A1, “NOVEL PIPERAZINE-BASED SULFONAMIDES AND THEIR USE AS NEUROPROTECTIVE AND/OR NEURORESTORATIVE AGENTS” (GENECODE, priority 2022, published 2026).
